Our source for the Ki values is patent publication US6281214A, “Biphenyl derivatives” (Eisai Co., Ltd, priority 1994, dated 2001).

Common to all, as to set-up: species or system SD rats
The target in one assay is adrenergic α1 receptor. Description: adrenergic α1 receptor binding test ([3H] Prazosin Binding Test). The following applies: 1 nM [3H] Prazosin, rat cortex, room temperature, 60 minutes. In short, it runs like this: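 Rat (SD, 6-8 weeks) cerebral cortex membranes in 50 mM Tris-HCl pH 7.4 incubated with 1 nM [3H]prazosin for 60 min at room temperature; nonspecific binding defined with phentolamine. IC50 by probit method, converted to Ki using radioligand concentration and Scatchard-derived Kd.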

The next assay addresses T1, dopamine D2 receptor (Rattus norvegicus, UniProt P61169).
T1 construct: the receptor fraction prepared from the corpus striatum was molten and suspended; from tissue; host or cells: corpus striatum of SD rats (membrane fraction)
Description: dopamine D2 receptor binding test ([3H] Spiperone Binding Test). The following applies: 1 nM [3H] Spiperone, rat corpus striatum, room temperature, 60 minutes; read-out: Ki value, dopamine D2 receptor. In short, it runs like this:
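Rat (SD, 6–8 weeks) corpus striatum membranes in 50 mM Krebs-Tris pH 7.4 were incubated with 1 nM [3H]spiperone at room temperature for 60 minutes, with nonspecific binding defined by excess spiperone. IC50 came from probit analysis; Ki was derived using radioligand concentration and Scatchard Kd.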

A further assay has as its target T2, serotonin S2 receptor (Rattus norvegicus, UniProt P14842).
T2 construct: The receptor fraction prepared from the cortex was molten and suspended; from tissue; host or cells: cerebral cortex of SD rats (membrane fraction)
Nature of the assay: serotonin S2 receptor binding test ([3H] Ketanserin Binding Test). As to conditions: 1 nM [3H] Ketanserin, rat cortex, 37° C., 15 minutes. In short, it runs like this:
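Rat (SD, 6–8 weeks) cortical membranes in 50 mM Tris-HCl pH 7.4 were incubated with 1 nM [3H]ketanserin for 15 min at 37 °C, then filtered and counted. Nonspecific binding was defined with methysergide. IC50 was obtained by probit analysis and converted to Ki using the Scatchard-derived Kd.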

T2 sequence (P14842 whole entry): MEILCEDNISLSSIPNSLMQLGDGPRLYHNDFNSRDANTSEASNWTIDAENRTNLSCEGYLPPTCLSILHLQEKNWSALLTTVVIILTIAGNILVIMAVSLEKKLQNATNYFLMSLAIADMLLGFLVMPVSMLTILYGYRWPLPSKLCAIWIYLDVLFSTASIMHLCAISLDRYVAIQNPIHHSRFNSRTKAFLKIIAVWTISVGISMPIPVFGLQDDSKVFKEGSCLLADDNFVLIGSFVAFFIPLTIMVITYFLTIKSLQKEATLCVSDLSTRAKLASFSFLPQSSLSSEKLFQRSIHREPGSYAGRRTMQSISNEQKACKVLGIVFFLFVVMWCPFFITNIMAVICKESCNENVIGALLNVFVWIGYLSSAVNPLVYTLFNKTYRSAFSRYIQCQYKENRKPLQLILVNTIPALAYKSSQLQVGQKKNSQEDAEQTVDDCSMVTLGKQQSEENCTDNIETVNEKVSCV
T1 sequence (P61169 whole entry): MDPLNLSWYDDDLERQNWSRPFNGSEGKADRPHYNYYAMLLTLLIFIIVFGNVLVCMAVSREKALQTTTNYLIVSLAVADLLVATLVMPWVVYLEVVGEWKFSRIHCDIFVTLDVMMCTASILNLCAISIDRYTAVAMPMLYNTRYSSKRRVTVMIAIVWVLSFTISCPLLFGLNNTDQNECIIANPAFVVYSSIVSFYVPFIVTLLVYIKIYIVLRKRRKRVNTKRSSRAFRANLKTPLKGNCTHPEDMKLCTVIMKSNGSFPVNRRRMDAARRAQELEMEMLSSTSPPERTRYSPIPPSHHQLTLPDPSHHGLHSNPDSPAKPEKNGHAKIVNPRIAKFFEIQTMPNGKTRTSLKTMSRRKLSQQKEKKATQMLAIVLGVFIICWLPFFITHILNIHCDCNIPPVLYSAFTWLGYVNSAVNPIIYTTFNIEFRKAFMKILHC

One may read the Ki as the equilibrium dissociation constant of an inhibitor or competing ligand from its target. With `CCCC(F)c1cc(N2CCN(CC)CC2)cc(-c2ccccc2C)c1F` (stereo not drawn) [Example 50, 1-Ethyl-4-[3-(2-tolyl)-4-fluoro-5-(1-fluorobutyl)]phenylpiperazine], the Ki on adrenergic α1 receptor was above 1000 nM; at dopamine D2 receptor, 9.14 nM; at serotonin S2 receptor, 17.7 nM.
For `CCCc1cc(N2CCN(CC)CC2)cc(-c2ccccc2F)c1OC` [Example 84, 1-Ethyl-4-[3-(2-fluorophenyl)-4-methoxy-5-propyl]phenylpiperazine], in that order: above 1000 nM, 44.6 nM and 66.2 nM.
Consider `CCS(=O)(=O)c1cc(N2CCN(CCc3ccccn3)CC2)cc(-c2ccc(F)cc2)c1OC` [Example 198, 1-[2-(2-Pyridyl)ethyl]-4-[3-(4-fluorophenyl)-4-methoxy-5-ethanesulfonyl]phenylpiperazine], for which the values for the Ki on adrenergic α1 receptor, on dopamine D2 receptor and at serotonin S2 receptor were 62.7 nM, 12.1 nM and 1.06 nM, respectively.
For `CCCCOC(CC)c1cc(N2CCN(CC)CC2)cc(-c2ccccc2)c1OC` (stereo not drawn) [Example 81], in that order: above 1000 nM, 38.3 nM and 241 nM.
`C=CCCC(F)c1cc(N2CCN(CC)CC2)cc(-c2ccccc2C)c1Cl` (stereo not drawn) [Example 160, 1-Ethyl-4-[3-(2-tolyl)-4-chloro-5-(1-fluoro-4-pentenyl)]phenylpiperazine]: the Ki on adrenergic α1 receptor is above 1000 nM; at dopamine D2 receptor, 13.6 nM; at serotonin S2 receptor it was 14.8 nM.
`CCN1CCN(c2cc(NS(=O)(=O)CC)c(Cl)c(-c3ccccc3Cl)c2)CC1` [Example 31, 1-Ethyl-4-[3-(2-chlorophenyl)-4-chloro-5-ethanesulfonylamino]phenylpiperazine]: the Ki on adrenergic α1 receptor was 36.1 nM; on dopamine D2 receptor it was 0.69 nM; at serotonin S2 receptor it was 12.4 nM.
Regarding `CCN1CCN(c2cc(-c3ccccc3)c(OC)c(C3OCCCO3)c2)CC1` [Example 107, 1-Ethyl-4-[3-phenyl-4-methoxy-5-(1,3-dioxan-2yl)]phenylpiperazine], the Ki on adrenergic α1 receptor was above 1000 nM; on dopamine D2 receptor, 429 nM; on serotonin S2 receptor, above 1000 nM.
Take `CCCS(=O)(=O)c1cc(N2CCN(C)CC2)cc(-c2ccccc2Cl)c1Cl` [Example 180, 1-Methyl-4-[3-(2-chlorophenyl)-4-chloro-5-propanesulfonyl]phenylpiperazine]: the results for the Ki at adrenergic α1 receptor, on dopamine D2 receptor and at serotonin S2 receptor were above 100 nM, 13 nM and 3.48 nM, respectively.
With `CCC(F)c1cc(N2CCN(C)CC2)cc(-c2ccccc2CO)c1Cl` (stereo not drawn) [Example 207], the Ki on adrenergic α1 receptor is above 1000 nM; on dopamine D2 receptor, 240 nM; on serotonin S2 receptor, 81.1 nM.
`CCOC(=O)CCc1cc(N2CCN(CC)CC2)cc(-c2ccccc2)c1OC` [Example 111, 1-Ethyl-4-[3-phenyl-4-methoxy-5-(2-ethoxycarbonylethyl)]phenylpiperazine]: the Ki worked out at 210 nM at adrenergic α1 receptor, 41.9 nM at dopamine D2 receptor and 58 nM at serotonin S2 receptor.
For the compound `CN1CCN(c2cc(NS(=O)(=O)Cc3ccccc3)c(Cl)c(-c3ccccc3Cl)c2)CC1` [Example 179, 1-Methyl-4-[3-(2-chlorophenyl)-4-chloro-5-benzylsulfonylamino]phenylpiperazine], the Ki on adrenergic α1 receptor was found to be 72.7 nM; on dopamine D2 receptor, 6.08 nM; at serotonin S2 receptor, 6.54 nM.
For `CCN1CCN(c2cc(COCc3ccccc3)c(Cl)c(-c3ccccc3C)c2)CC1` [Example 167, 1-Ethyl-4-[3-(2-tolyl)-4-chloro-5-benzyloxymethyl]phenylpiperazine], in that order: above 1000 nM, 45.4 nM and 23.8 nM.
For `CCN1CCN(c2cc(-c3ccc(F)cc3)c(OC)cc2C(C)C)CC1` [Example 79], in that order: 69.8 nM, 28.5 nM and 192 nM.
`CCS(=O)(=O)Nc1cc(N2CCN(C)CC2)cc(-c2ccccc2C)c1Cl` [Example 28, 1-Methyl-4-[3-(2-tolyl)-4-chloro-5-ethanesulfonylamino]phenylpiperazine]: the Ki on adrenergic α1 receptor was 50.8 nM; at dopamine D2 receptor it was 1.6 nM; on serotonin S2 receptor, 5.67 nM.
For `CCN1CCN(c2ccc(OC(C)C)c(-c3ccccc3)c2)CC1` [Example 61, 1-Ethyl-4-(3-phenyl-4-isopropxy)phenylpiperazine], in that order: above 1000 nM, above 1000 nM and above 1000 nM.
`CCCC(O)c1cc(N2CCN(C)CC2)cc(-c2ccccc2C)c1Cl` (stereo not drawn) [Example 174]: the Ki is above 1000 nM at adrenergic α1 receptor, 31.8 nM on dopamine D2 receptor and 48.7 nM on serotonin S2 receptor.
In the case of `CCC(F)c1cc(N2CCN(CC)CC2)cc(-c2ccc(F)cc2F)c1Cl` (stereo not drawn) [Example 144, 1-Ethyl-4-[3-(2,4-difluorophenyl)-4-chloro-5-(1-fluoropropyl)]phenylpiperazine], the inhibitory constant (Ki) was found to be 67.4 nM on adrenergic α1 receptor, 0.81 nM on dopamine D2 receptor and 15.7 nM on serotonin S2 receptor.
Turning to `CCN1CCN(c2cc(CCCO)cc(-c3ccccc3)c2OC)CC1` [Example 63, 1-Ethyl-4-[2-methoxy-3-phenyl-5-(3-hydroxypropyl)]phenylpiperazine], the Ki at adrenergic α1 receptor is above 1000 nM; at dopamine D2 receptor, above 1000 nM; at serotonin S2 receptor it was 703 nM.
For the compound `CCN1CCN(c2cc(-c3ccccc3C)c(Cl)c(C3SCCCS3)c2)CC1` [Example 190, 1-Ethyl-4-[3-(2-tolyl)-4-chloro-5-(1,3-dithian-2-yl)phenylpiperazinepropanedithio]phenylpiperazine], the Ki at adrenergic α1 receptor is above 1000 nM; on dopamine D2 receptor, 40.4 nM; on serotonin S2 receptor it was 18.5 nM.
For `CCCS(=O)(=O)Nc1cc(N2CCN(CC)CC2)cc(-c2ccccc2Cl)c1Cl` [Example 32, 1-Ethyl-4-[3-(2-chlorophenyl)-4-chloro-5-propanesulfonylamino]phenylpiperazine], in that order: 19.5 nM, 0.38 nM and 3.36 nM.
For `CCCCS(=O)(=O)Nc1cc(N2CCN(C)CC2)cc(-c2ccccc2C)c1Cl` [Example 30], in that order: 92.5 nM, 0.86 nM and 2.24 nM.
For `CCCCC(F)c1cc(N2CCN(CC)CC2)cc(-c2ccccc2)c1OC` (stereo not drawn) [Example 48, 1-Ethyl-4-[3-phenyl-4-methoxy-5-(1-fluoropentyl)]phenylpiperazine], in that order: above 1000 nM, 25.8 nM and 4.32 nM.
Turning to `CCCS(=O)(=O)Nc1cc(N2CCN(C)CC2)cc(-c2ccccc2Cl)c1Cl` [Example 35, 1-Methyl-4-[3-(2-chloropheyl)-4-chloro-5-propanesulfonylamino]phenylpiperazine], the inhibitory constant (Ki) at adrenergic α1 receptor came to 17 nM; at dopamine D2 receptor it was 0.5 nM; on serotonin S2 receptor it was 3.37 nM.
For `CCCC(F)c1cc(N2CCN(C)CC2)cc(-c2ccccc2C)c1Cl` (stereo not drawn) [Example 53, 1-Methyl-4-[3-(2-tolyl)-4-chloro-5-(1-fluorobutyl)]phenylpiperazine], in that order: above 1000 nM, 6.73 nM and 12.4 nM.
Take `CCCc1cc(N2CCN(CC)CC2)cc(-c2ccccc2)c1OC` [Example 59, 1-Ethyl-4-(3-phenyl-4-methoxy-5-propyl)phenylpiperazine]: the Ki was determined as 301 nM on adrenergic α1 receptor, 47 nM on dopamine D2 receptor and 36.7 nM on serotonin S2 receptor.
For `CCN1CCN(c2cc(-c3ccccc3C)c(Cl)c(N3CCCC3)c2)CC1` [Example 177], in that order: above 1000 nM, above 100 nM and above 100 nM.
